Experimental data taken from patent US20240316012A1, “METHODS FOR TREATING LYMPHOMA” (Northwestern University, priority 2023, published 2024).

Columns and labels:
[1] = tested on: ITK-SYK^+PD-1− cells; assay: Lactate production of ITK-SYK+PD-1− cells incubated with small molecule inhibitors; type: cell-based, mouse; conditions: ITK-SYK+PD-1− cells in vitro; FIGS. 10A-C
Description: (§1) Cell culture. Unless otherwise indicated, murine cells were cultured in DMEM containing 20% FCS. The following compounds were used for the in vitro experiments: glycolysis inhibitor 2-deoxy-D-glucose (D8375, Sigma), mTOR inhibitor Torin-1 (S2827, Selleckchem), HIF1α inhibitor PX-478 2HCl (S7612, Selleckchem), ATP citrate lyase inhibitor BMS-303141 (4609, Tocris), fatty acid synthase inhibitor FT113 (S6666, Selleckchem), and BET-p300/CBP dual inhibitor NE02734 (S9648, Selleckchem). Inhibitors were dissolved in DMSO or water, and the cell culture medium was supplemented with the indicated concentrations of the compound or DMSO/water (as control).
To test the dependency of fully transformed lymphomas with Pdcd1 deletion on the released mTOR-HIF1α-glycolysis cascade, Applicants incubated ITK-SYK^+PD-1− cells with small molecule inhibitors of mTOR, HIF1α, or glycolysis^22,23.

[2] = tested on: ITK-SYK^+PD-1^− lymphoma cells; assay: In vitro survival of PD-1 deficient lymphoma cells under inhibitor treatment; type: cell-based, mouse; conditions: FIGS. 10D-F
Description: as §1
To determine whether ACLY activity is required for PD-1-deficient lymphoma cell survival, Applicants next incubated transformed ITK-SYK^+PD-1− T cells from tamoxifen-injected ITK-SYK^CD4-creERT2; Pdcd1^−/− mice with an ACLY inhibitor. This treatment killed the ITK-SYK^+PD-1^− lymphoma cells (FIG. 11F, p=0.0037).

[3] = tested on: PD-1 wild-type tumors (primary CTCL); assay: Inhibitor treatment of human cells in vitro, division index, PD-1 wild-type CTCL cells; type: cell-based; conditions: 2-DG 1 mM, everolimus 0.1 μM, BMS-303141 10 μM; 6 days; FIG. 7E
Description: FIGS. 7A-7H show ACLY dependency and AP-1 activation in human PDCD1 defective T-NHL. […] CNA, copy number aberrations. FIG. 7B GSEA for the indicated gene sets based on RNA-seq data from the 21 CTCL patients shown in (a). NES, normalized enrichment score; FDR, false discovery rate. […] P=one-way ANOVA and two-sided Student's t-test. Shown are the mean±SD and individual data points. […] FACS-sorted malignant cells were stimulated with anti-CD3/anti-CD28 beads, and 2-NBDG uptake was determined at the indicated time points. P=two-sided Student's t-test. Shown are the mean±SEM and individual data points. […] CFSE, carboxyfluorescein succinimidyl ester. P=two-sided Student's t-test. The data are presented as the mean±SEM and individual data points. […] Legend as in (5a). […] FIG. 7H GSEA for the indicated gene sets with RNA-seq data from 21 CTCL PDCD1mut” or “PDCD1 wt, and three patients with hyperprogression. NES, normalized enrichment score; FDR, false discovery rate. FIGS. 7A and 7B, Data from a single experiment with 21 patients. FIGS. 7C and 7D, Data from one experiment with three patients per group and three healthy donors. FIG. 7E, Data from one experiment with three patients and three healthy donors. FIGS. 7F and 7G, Data from one experiment with three patients per group. FIG. 7H, Data from a single experiment.
Isolation of primary human CTCL cells. This study was approved by the Northwestern University Institutional Review Board. Patients provided informed consent for inclusion in the study. […] The tumor burden for each patient was determined using well-validated clinical markers, taking whichever value was higher between Sezary cell counts or the CD26 negative cell number by clinical flow cytometry. These were analyzed in conjunction with white blood cell and absolute lymphocyte counts.
Inhibitor treatment of human cells in vitro Malignant CTCL cells and CD4^+ T cells from healthy donors were isolated as previously described. […] After 6 days, the cells were analyzed by flow cytometry, and the division index was determined using the FlowJo proliferation tool (v10.6, FlowJo LLC).

O=CC[C@@H](O)[C@H](O)[C@H](O)CO [2-DG, 2-deoxy-D-glucose] was tested, and the production of lactate [1] was “reduced the production of lactate”, the “toxicity to PD-1 deficient lymphoma cells” value [2] was “toxic” and the “response of stage-matched PD-1 wild-type tumors (relative division index)” value [3] was “resistant”.

COc1ccc(-c2ccccc2)cc1NS(=O)(=O)c1cc(Cl)cc(Cl)c1O [BMS-303141] was tested, and the “response of stage-matched PD-1 wild-type tumors (relative division index)” value [3] was “resistant”.
